# Read-outs that look alike come from different tables or passages of the source. Non-standard residues stand in square brackets, D forms with d.
# What was measured:
# [1] = system: LDL-induced monocyte chemotaxis in cultured human aortic endothelial cells (HAEC); assay: Monocyte chemotaxis assay (LDL-treated HAEC cultures); format: cell-based; conditions: for Monocyte chemotactic activity, dose response: Figure 2; for Monocyte chemotactic activity, Inflammatory Index (II): peptide 1 µg/ml, HAEC treated with LDL 250 µg/ml 8 h, standardized to LDL, II<1 anti-inflammatory, Figure 1
# Experimental: Normal human monocytes were isolated as previously described. Human aortic endothelial cells (HAEC) were isolated and maintained as previously reported. Acquisition and use of these cells was in accordance with protocols approved by the UCLA Human Research Subject Protection Committee.
# (§1) As previously described, [64], HAEC cells were treated with native LDL (250 µg/ml) in the absence or presence of HDL or tested peptides for 8 h. After these cultures were washed, the medium was replaced by fresh Medium 199 and the cultures were incubated for an additional 8 h. This culture medium was collected and assayed for monocyte chemotactic activity using chambers purchased from Neuroprobe (Cabin John, MD). After monocytes were added to the upper compartment, the chamber was incubated for 60 min at 37°C and subsequently disassembled. The membrane was rinsed, air dried, fixed with 1% glutaraldehyde, stained with 0.1% crystal violet dye, and 12 standardized high power fields were examined microscopically. The number of migrated monocytes was expressed as the mean ±SD of monocytes counted. Values obtained in the absence of HDL were normalized to a value of 1.0. Normalized values >1.0 after HDL addition were considered to be pro-inflammatory, and values <1.0 as being anti-inflammatory.
# Bovine albumin = molecular target: T1, Bovine albumin (Bos taurus, UniProt P02769); conditions: SPR; mean ± SEM; read-out: KD ± SEM, bovine albumin (control); cited from earlier work
# T1 construct: purchased Sigma-Aldrich
# Text: (§2) Table 3 Binding of OxP-11D and D-4F to oxidized and nonoxidized (phospho)lipids and sterols. | column: apoA-I; KD ± SEM (M) / D-4F
# [2] = SPR, mean ± SEM, cited from earlier work
# Text: as §2
# human RBCs = assay: Inhibition of CDC-mediated hemolysis; format: cell-based; conditions: data not shown
# apoE deficient mice = assay: In vivo activity in apoE deficient mice: HDL inflammatory index
# Experimental: as §1
# ApoE null mice on a C57BL/6J background, originally from Jackson Laboratories (Bar Harbor, ME), were maintained in a breeding colony in the Department of Laboratory and Animal Medicine at the David Geffen School of Medicine at UCLA. The mice were maintained on a chow diet (Ralston Purina, St. Louis, MO).
# Six hours later, and with continued fasting, blood was removed from the retro-orbital sinus under mild isoflurane anesthesia, and anticoagulated with heparin (2.5 U/ml). Plasma was obtained and fractionated by FPLC. HDL-containing fractions were tested in HAEC cultures for their ability to inhibit LDL-induced monocyte chemotactic activity. All procedures conformed to regulations of the UCLA Animal Research Committee. An HDL inflammatory index was determined using the standard monocyte chemotaxis assay. Indices >1 were interpreted as pro-inflammatory, and indices <1 as anti-inflammatory.
# [3] = peptide 0.01 µg/ml (10 ng/ml) versus 1 µg/ml
# [4] = peptide 0.1 µg/ml versus 1 µg/ml
# [5] = read-out: KD ± SEM, 12(S)-HPETE
# [6] = read-out: KD ± SEM, 13(S)-HPODE
# [7] = read-out: KD ± SEM, 15(S)-HPETE
# [8] = read-out: KD ± SEM, arachidonic acid
# [9] = read-out: KD ± SEM, linoleic acid
# [10] = read-out: KD ± SEM, palmitic acid
# T1 sequence (P02769 25-607): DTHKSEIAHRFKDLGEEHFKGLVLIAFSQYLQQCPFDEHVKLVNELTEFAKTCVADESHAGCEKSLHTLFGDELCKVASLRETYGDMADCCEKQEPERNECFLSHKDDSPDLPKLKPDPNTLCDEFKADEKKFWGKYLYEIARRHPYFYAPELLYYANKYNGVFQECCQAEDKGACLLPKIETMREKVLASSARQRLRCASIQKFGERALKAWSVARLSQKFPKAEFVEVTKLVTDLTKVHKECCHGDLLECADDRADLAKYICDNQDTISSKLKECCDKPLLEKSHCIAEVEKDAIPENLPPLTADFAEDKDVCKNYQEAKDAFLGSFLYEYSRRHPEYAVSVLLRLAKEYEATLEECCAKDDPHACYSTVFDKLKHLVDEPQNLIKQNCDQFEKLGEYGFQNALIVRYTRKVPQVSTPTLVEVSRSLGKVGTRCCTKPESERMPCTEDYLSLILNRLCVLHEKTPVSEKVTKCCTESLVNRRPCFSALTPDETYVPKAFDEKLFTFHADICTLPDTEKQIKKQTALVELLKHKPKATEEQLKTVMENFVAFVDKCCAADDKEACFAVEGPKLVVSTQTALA
Substance,"Monocyte chemotactic activity, dose response [1, 3]","Monocyte chemotactic activity, dose response [1, 4]","Monocyte chemotactic activity, Inflammatory Index (II) [1]",Kd (Bovine albumin) [nM],"Kd ([2]; read-out: KD ± SEM, 5(S)-HPETE) [µM]","Kd ([2]; read-out: KD ± SEM, 9(S)-HODE) [µM]","Kd ([2]; read-out: KD ± SEM, 12(S)-HETE) [µM]","Kd [2, 5] [µM]","Kd ([2]; read-out: KD ± SEM, 13(S)-HODE) [µM]","Kd [2, 6] [µM]","Kd ([2]; read-out: KD ± SEM, 15(S)-HETE) [µM]","Kd [2, 7] [µM]","Kd ([2]; read-out: KD ± SEM, KOdiA-PC) [µM]","Kd ([2]; read-out: KD ± SEM, PEIPC) [µM]","Kd ([2]; read-out: KD ± SEM, POVPC) [µM]","Kd [2, 8] [µM]","Kd [2, 9] [µM]","Kd [2, 10] [µM]",other results
Aib-RE-Ctb-Val-R-Leu-Val-Trp-E-Trp-Trp-RE-Val-NH2 [OxP-13],reduced activity substantially,relatively small decrease in activity,very similar activity,–,–,–,–,–,–,–,–,–,–,–,–,–,–,–,–
apoA-I: human apoA-I,–,–,–,21,1600 ± 0.3,1300 ± 0.5,850 ± 0.033,820 ± 0.027,1800 ± 0.3,1200 ± 0.6,1300 ± 0.1,1000 ± 0.2,21,51,31,0.01,0.0065,2,"KD ± SEM, 4β-hydroxycholesterol [2]: BND; KD ± SEM, 20(S)-hydroxycholesterol [2]: BND; KD ± SEM, 22(S)-hydroxycholesterol [2]: BND; KD ± SEM, 24(S)-hydroxycholesterol [2]: BND; KD ± SEM, 25-hydroxycholesterol [2]: BND; KD ± SEM, cholesterol [2]: BND"
RE-Ctb-Thr-G-Leu-Ala-Trp-E-Trp-Trp-RT-Val-NH2 [OxP-2],–,–,–,–,–,–,–,–,–,–,–,–,–,–,–,–,–,–,Inhibition of CDC-mediated hemolysis (human RBCs): enhanced the peptide's ability to inhibit CDC-mediated hemolysis
RE-Dpa-Thr-G-Leu-Ala-Trp-E-Trp-Trp-RT-Val-NH2 [OxP-11],reduced activity substantially,relatively small decrease in activity,very similar activity,–,–,–,–,–,–,–,–,–,–,–,–,–,–,–,"HDL Inflammatory Index in vivo (apoE deficient mice; lower doses 0.5 and 0.1 mg/kg subcutaneously, apoE deficient mice, Figure 3B): considerably less active than L-4F"
"Ac-DWFKAFYDKVAEKFKEAF-NH2 [D-4F, a prominent apoA-I-mimetic peptide, Ac-…-NH2, reference compound]",–,–,very similar activity,–,0.018,0.015,0.018,0.17,0.011,0.021,0.022,0.051,0.00058,6e-05,0.0024,0.012,0.015,0.67,"HDL Inflammatory Index in vivo (apoE deficient mice; 1 mg/kg subcutaneously, fasting female apoE deficient mice, HDL isolated 6 h after dose, normalized to LDL, Figure 3): equally effective; Kd ([2]; read-out: KD ± SEM, 4β-hydroxycholesterol): 31 µM; Kd ([2]; read-out: KD ± SEM, 20(S)-hydroxycholesterol): 3.9 µM; Kd ([2]; read-out: KD ± SEM, 22(S)-hydroxycholesterol): 15 µM; Kd ([2]; read-out: KD ± SEM, 24(S)-hydroxycholesterol): 4.3 µM; Kd ([2]; read-out: KD ± SEM, 25-hydroxycholesterol): 2.4 µM; Kd ([2]; read-out: KD ± SEM, PGPC): 0.0063 µM; Kd ([2]; read-out: KD ± SEM, cholesterol): 0.092 µM"
"Ac-DWFKAFYDKVAEKFKEAF-NH2 (Ac-[dD][dW][dF][dK][dA][dF][dY][dD][dK][dV][dA][dE][dK][dF][dK][dE][dA][dF]-NH2) [D-4F, a prominent apoA-I-mimetic peptide, Ac-…-NH2, reference compound]",–,–,–,3900,–,–,–,–,–,–,–,–,–,–,–,–,–,–,–

# Reference: article PMC2854715, “Oxpholipin 11D: An Anti-Inflammatory Peptide That Binds Cholesterol and Oxidized Phospholipids” (PLoS ONE, 2010)
